In patent publication US5116834A, “Quinolinecarboxylic acid antibacterial agents” (Warner-Lambert Company, priority 1991, dated 1992) one finds MIC data, which are given here for three compounds.

In brackets after ≈: the same amount, converted by molar mass.

What all share (assay): In vitro antibacterial activity, microtitration dilution method (MIC)
What all share (type): cell-based

In assay [1] the test system is Pseudomonas aeroginosa UI-18. As to conditions: UI18, read-out: Minimal Inhibitory Concentration (MIC). An excerpt:
(§1) The compounds of the invention display anti-bacterial activity when tested by the microtitration dilution method as described in Heifetz, et al, Antimicr. Agents & Chemoth., 6, 124 (1974), which is incorporated herein by reference.
(§2) By use of the above reference method, the following minimum inhibitory concentration value (MICs in μg/mL) shown in Table I were obtained for representative compounds of the invention.

The test system of assay [2] is Streptococcus pyogenes C-203. As to conditions: C203, read-out: Minimal Inhibitory Concentration (MIC).
Excerpt: as §1, §2

A further assay concerns Escherichia coli H56. Conditions: read-out: Minimal Inhibitory Concentration (MIC).
Excerpt: as §1, §2

Assay [3] has as its system Enterobacter cloacae MA 2646. Conditions: MA2646, read-out: Minimal Inhibitory Concentration (MIC).
Excerpt: as §1, §2

For assay [4], the system named is Staphylococcus aureus UC-76. As to conditions: UC76, read-out: Minimal Inhibitory Concentration (MIC).
Excerpt: as §1, §2

In assay [5] the test system is Streptococcus faecalis MGH-2. Conditions: Enterococcus faecalis, MGH2, read-out: Minimal Inhibitory Concentration (MIC).
Excerpt: as §1, §2

For a further assay, the system named is Proteus rettgeri M 1771. Conditions: Providencia rettgeri, M1771, read-out: Minimal Inhibitory Concentration (MIC).
Excerpt: as §1, §2

The test system of the next assay is Escherichia coli Vogel. Conditions: read-out: Minimal Inhibitory Concentration (MIC).
Excerpt: as §1, §2

The test system of assay [6] is Klebsiella pneumoniae MGH-2. As to conditions: MGH2, read-out: Minimal Inhibitory Concentration (MIC). An excerpt:
(§3) The compounds of the invention display anti-bacterial activity when tested by the microtitration dilution method as described in Heifetz, et al, […]. Agents & Chemoth., 6, 124 (1974), which is incorporated herein by reference. By use of the above reference method, the following minimum inhibitory concentration value (MICs in μg/mL) shown in Table I were obtained for representative compounds of the invention.

In assay [7] the test system is Streptococcus pneumoniae SV-1. As to conditions: SV1, read-out: Minimal Inhibitory Concentration (MIC).
Excerpt: as §3

Assay [8] has as its system Staphylococcus aureus H228. As to conditions: read-out: Minimal Inhibitory Concentration (MIC).
Excerpt: as §3

For the compound `C=Cc1c(N2CCNC(C)C2)c(F)cc2c(=O)c(C(=O)O)cn(C3CC3)c12` (stereo not drawn) [Ex. 1, 1-Cyclopropyl-8-ethenyl-6-fluoro-1,4-dihydro-7-(3-methyl-1-piperazinyl)-4-oxo-3-quinolinecarboxylicacid], the MIC worked out at 1.6 µg/mL (≈ 4.31 µM) in assay [1]; 0.2 µg/mL (≈ 0.538 µM) in assay [2]; 0.05 µg/mL (≈ 0.135 µM) in the assay on Escherichia coli H56; 0.1 µg/mL (≈ 0.269 µM) in assay [3]; 0.1 µg/mL (≈ 0.269 µM) in [4]; 0.4 µg/mL (≈ 1.08 µM) in assay [5]. The MIC was 0.4 µg/mL (≈ 1.08 µM) in the assay on Proteus rettgeri M 1771; 0.1 µg/mL (≈ 0.269 µM) with Escherichia coli Vogel; 0.2 µg/mL (≈ 0.538 µM) in assay [6]; 0.2 µg/mL (≈ 0.538 µM) in [7]; 0.2 µg/mL (≈ 0.538 µM) in assay [8].

With `C=Cc1c(N2CC[C@@H](CNCC)C2)c(F)cc2c(=O)c(C(=O)O)cn(C3CC3)c12` [Ex. 3, 1-Cyclopropyl-8-ethenyl-7-[3(S)-(ethylamino)methyl-1-pyrrolidine]-6-fluoro-1,4-dihydro-4-oxo-3-quinolinecarboxylic acid], the MIC in assay [1] amounted to 3.1 µg/mL (≈ 7.76 µM); in assay [2], 0.013 µg/mL (≈ 0.0325 µM); with Escherichia coli H56, 0.1 µg/mL (≈ 0.25 µM); in [3] it was 0.2 µg/mL (≈ 0.501 µM); in assay [4], 0.003 µg/mL (≈ 0.00751 µM); in [5], 0.013 µg/mL (≈ 0.0325 µM). The MIC was 0.4 µg/mL (≈ 1 µM) in the assay with Proteus rettgeri M 1771; 0.1 µg/mL (≈ 0.25 µM) in the assay with Escherichia coli Vogel; 0.4 µg/mL (≈ 1 µM) in assay [6]; 0.003 µg/mL (≈ 0.00751 µM) in assay [7]; 0.006 µg/mL (≈ 0.015 µM) in assay [8].

In the case of `C=Cc1c(N2CCNCC2)c(F)cc2c(=O)c(C(=O)O)cn(C3CC3)c12` [Ex. 2, 1-Cyclopropyl-8-ethenyl-6-fluoro-1,4-dihydro-4-oxo-7-(1-piperazinyl)-3-quinolinecarboxylic acid], the MIC in [1] was 1.6 µg/mL (≈ 4.48 µM); in [2], 0.4 µg/mL (≈ 1.12 µM); in the assay on Escherichia coli H56 it was 0.05 µg/mL (≈ 0.14 µM); in assay [3], 0.1 µg/mL (≈ 0.28 µM); in assay [4], 0.1 µg/mL (≈ 0.28 µM); in [5], 0.4 µg/mL (≈ 1.12 µM). The MIC with Proteus rettgeri M 1771 turned out to be 0.4 µg/mL (≈ 1.12 µM); with Escherichia coli Vogel, 0.1 µg/mL (≈ 0.28 µM); in assay [6], 0.2 µg/mL (≈ 0.56 µM); in [7], 0.4 µg/mL (≈ 1.12 µM); in assay [8] it was 0.4 µg/mL (≈ 1.12 µM).
